In PubChem BioAssay AID743396 (Broad Institute, 2014) one finds AC40 and % fluorescent cells increase data, which are given here for 78 molecules.

Molecules are shown by their SMILES. The source made the active and inactive calls.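 The calls were made as follows: active = fitted curve reaches a 40% rise in fluorescent cells at or below the top valid dose; inactive = opposite-direction effect, or the rest.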 A value given as a limit tells only on which side of the number the result lay.

In one experiment the test system is mTEFS fibroblasts autofluorescence, GFP-channel imaging, 3 days. In words: autofluorescent compounds in non-GFP fibroblasts, dose response, artefact control for X-chromosome reactivation project, imaging, mTEFS fibroblasts, cherry-pick (AID 743396).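 As to % fluorescent cells increase: raw share of Hoechst-counted cells scored GFP positive without control normalization.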 Conditions: cells pretreated with 5-aza-dC.
Consider `Cc1cc2oc3ccc(NCCCn4ccnc4)cc3c(=O)c2cc1C`, for which the AC40 is 19.2 µM. The same measure, in the same setting: with `CC(=O)Nc1sc(/C(C#N)=C/c2ccc(Cl)c(Cl)c2)nc1-c1ccc(C)cc1` the figure was 3.55 µM; with `O=[N+]([O-])c1ccc(N/N=C/c2sc(N3CCOCC3)nc2-c2ccccc2)c(S(=O)(=O)Nc2ccc(Cl)cc2)c1`, > 6.8 µM (inactive); with `CCN1/C(=C\c2ccc3cc(C)ccc3[n+]2CC)Sc2cc(C)c(C)cc21`, 15.7 µM. `CCN1/C(=C\c2ccc3ccccc3[n+]2CC)Sc2cc(C)ccc21`: the AC40 is 0.582 µM. On the same count and under the same terms, with `CC(C)CCN1C(=O)c2cccc3c(N)ccc(c23)C1=O` the figure was 5.86 µM. Still for that read-out and setting: under `O=S(=O)(Nc1cc2nc3ccccc3nc2n1Cc1ccccc1)c1ccc(Cl)cc1` stands > 19.5 µM (inactive). With `Nc1c(C(=O)c2cccs2)sc2nsc(SCCN3CCCCC3)c12`, the AC40 was 2.03 µM. For the molecule `Nc1[nH]c2cc([N+](=O)[O-])ccc2c1-c1ccccn1`, the AC40 is 8.95 µM. On the same count and under the same terms, under `N#C/C(=C\c1ccc([N+](=O)[O-])o1)c1nc2ccccc2[nH]1` stands > 19.5 µM (inactive); under `Nc1c(Br)cc2c3c(cccc13)-c1ccccc1-2`, > 19.5 µM (inactive).

With `CN1CCc2c(sc(NC(=O)c3ccc(S(=O)(=O)N4CCc5ccccc54)cc3)c2C(N)=O)C1`, the AC40 was 18 µM. Same read-out and setting: under `CC(C)(C)NC(=S)N/N=C\c1ccc(-c2ccc([N+](=O)[O-])cc2)o1` stands 7.84 µM; under `Cc1cccc2cc3c(N)c(C(=O)N4CCc5ccccc54)sc3nc12`, 10.5 µM; under `Cc1[nH]c2ccccc2c1/C=N/Nc1ccc([N+](=O)[O-])cc1`, 12.2 µM. Still for that read-out and setting: with `Cc1cc(C)cc(NC(=O)/C=C/c2ccc([N+](=O)[O-])s2)c1` the figure was 9.04 µM; with `COc1cc2c3nnc(-c4ccc(F)cc4)c-3cn(Cc3cccc(C)c3)c2cc1OC`, 3.63 µM. Same read-out and setting: with `Oc1ccc(/C=N/Nc2ccnc3cc(Cl)ccc23)c(O)c1` the figure was > 19.5 µM (inactive); with `CC1CN(C(=O)/C=C/c2ccc([N+](=O)[O-])s2)CC(C)O1` (stereo not drawn), 10.6 µM.

For the molecule `Cc1cc(C)c2cc3c(N)c(C(=O)Nc4c(C)[nH]c(=O)[nH]c4=O)sc3nc2c1`, the AC40 was > 19.5 µM (inactive).

With `Cc1ccc(C(=O)N/C(=C/c2ccc(-c3ccc([N+](=O)[O-])cc3)o2)C(=O)NCCCN(C)C)cc1`, the AC40 is 5.7 µM.

Tested on in a further experiment: not listed separately
The experiment is described as above. Conditions: mTEFS fibroblasts autofluorescence, GFP-channel imaging, 3 days; at 19.5 µM (top of the series).
Regarding `O=C(c1cccc2ccccc12)C1CCCN(Cc2ccon2)C1` (stereo not drawn), the % fluorescent cells increase was 0% (inactive). Consider `Cc1cc(/C=C2/C(=O)NC(=O)N(Cc3ccco3)C2=O)c(C)n1-c1ccccc1O`, for which the % fluorescent cells increase is 0% (inactive).

Still in this experiment, the particulars now being: mTEFS fibroblasts autofluorescence, GFP-channel imaging, 3 days; at 19.5 µM (top of the series); cells pretreated with 5-aza-dC.
As to `Cn1c(NC(=O)c2ccc(F)cc2)c(-c2ccccn2)c(=O)c2ccccc21`, the % fluorescent cells increase is 0.007% (inactive). On to `COc1ccc(NC(=O)C(C)N2C(=O)c3ccccc3C2=O)c(OC)c1` (stereo not drawn), for which the % fluorescent cells increase is 0.081% (inactive).

As to `CN(C)CCN(C(=O)c1ccc(S(=O)(=O)N(C)c2ccccc2)cc1)c1nc2cc3c(cc2s1)OCCO3`, the % fluorescent cells increase was 0% (inactive). The same measure, in the same setting: under `CCCCOc1nc2ccccc2nc1NS(=O)(=O)c1ccc(F)cc1` stands 0% (inactive); under `CC(C)CCN1CCN(Cc2cc3ccccc3[nH]2)CC1CCO` (stereo not drawn), 0% (inactive). Still for that read-out and setting: under `CC(=O)c1ccc(C(=O)Nc2sc3c(c2C(N)=O)CCN(Cc2ccccc2)C3)cc1` stands 8.52% (inactive). As to `CCN(CC)CCCNC1=C(Cl)C(=O)c2ccccc2C1=O`, the % fluorescent cells increase was -0.011% (inactive).

Turning to `CC(=O)NC(c1ccc(Cl)cc1)c1c(O)ccc2ccc(O)cc12` (stereo not drawn), the % fluorescent cells increase was 0.001% (inactive).

As to `COc1cccc(CNC(=O)C(Cc2ccccc2)n2cccc2)c1` (stereo not drawn), the % fluorescent cells increase was 0% (inactive). For the molecule `CC(C)n1c(NCc2cc(Cl)ccc2O)nc2ccccc21`, the % fluorescent cells increase was -0.007% (inactive). Still for that read-out and setting: with `CC(C)Oc1ccc(/C(O)=C2/C(=O)C(=O)N(CCN(C)C)C2c2cccs2)cc1` (stereo not drawn) the figure was 0% (inactive). Still for that read-out and setting: under `O=C1CSC(c2cccnc2)N1Cc1ccc(Cl)cc1Cl` (stereo not drawn) stands 0% (inactive); under `COc1cc(/C=C/C(=O)c2ccc3c(c2)OCCO3)cc(Br)c1OCC(=O)N(C)C`, 7.79% (inactive); under `O=[N+]([O-])c1ccccc1-c1ccc(C(=S)N2CCN(c3ccccc3)CC2)o1`, 0.237% (inactive). The same measure, in the same setting: under `O=C(CCn1nc(-c2ccc(Cl)cc2)c2ccccc2c1=O)NN1CCOCC1` stands 0.116% (inactive); under `CCCCC(=O)N(C)c1c(CC)nc2c(OCC(=O)c3ccc(F)cc3)cccn12`, 3.76% (inactive). For the molecule `CC1CCCC(NC(=O)CSc2cccc[n+]2[O-])C1C` (stereo not drawn), the % fluorescent cells increase is 0.029% (inactive). On the same count and under the same terms, under `Cc1cc(C(=O)Nc2ccc(Cl)c(S(=O)(=O)N3CCOCC3)c2)c2ccccc2n1` stands 0.116% (inactive). Still for that read-out and setting: with `Nc1nc(C2CCOCC2)cs1` the figure was 0.017% (inactive); with `Cc1ccc(S(=O)(=O)N2CCN(C(=O)COC(=O)c3ccccc3OC(F)F)CC2)c(C)c1`, 0% (inactive); with `CN(Cc1cccs1)C(=O)Cc1c[nH]c2ccccc12`, 0.005% (inactive). Still for that read-out and setting: with `CN(C)S(=O)(=O)c1cccc(C(=O)NCC2(N3CCOCC3)CCCCC2)c1` the figure was 0.019% (inactive); with `COc1ccc(C(=O)CN2Cc3ccccc3C2=N)cc1`, 0.041% (inactive); with `COc1ccc(S(=O)(=O)Nc2cccc3c2O[C@H](CN(C)S(=O)(=O)c2cn(C)cn2)[C@H](C)CN([C@H](C)CO)C3=O)cc1`, 0.016% (inactive). For `COc1ccc(C(=O)N/N=C/c2cc(Br)ccc2O)cc1OC`, the % fluorescent cells increase is 4.96% (inactive).

Take `COc1cccc(-c2ccc(C3[C@@H]4CN(C(=O)C5CCCCC5)C[C@H]3N4)cc2)c1` (stereo partly drawn): the % fluorescent cells increase was 0% (inactive).

As to `O=C(Nc1cccc(C(=O)O)c1)/C(=C\c1ccccc1)NC(=O)c1ccc(Br)o1`, the % fluorescent cells increase is 0% (inactive).

On to `CC1CN(Cc2c(O)ccc3c2oc(=O)c2ccccc23)CC(C)O1` (stereo not drawn), for which the % fluorescent cells increase is 0.279% (inactive). The same measure, in the same setting: with `CC(C)OC(=O)CC(=O)CSc1nc(-c2ccc(F)cc2)cc(-c2ccccc2)c1C#N` the figure was 0.594% (inactive); with `C[C@H]1CN([C@@H](C)CO)C(=O)c2ccccc2-c2ccccc2CO[C@H]1CN(C)C(=O)[C@@H](Cc1ccccc1)N(C)C`, 0% (inactive); with `C=C(C)c1cccc(C(C)(C)NC(=O)Nc2nnc(C(C)C)s2)c1`, 0% (inactive). On the same count and under the same terms, under `CCCC(=O)OCCNc1cc(Sc2nccn2C)c2nonc2c1[N+](=O)[O-]` stands 0% (inactive).

Consider `COC(=O)CCN1CCC(c2cc(-c3cccc(C(F)(F)F)c3)n[nH]2)CC1`, for which the % fluorescent cells increase was 0% (inactive). Still for that read-out and setting: under `Cc1ccc2[nH]c(C(=O)O)c(NC(=O)[C@@H]3C[C@@H]3c3ccccc3)c2c1` stands 0.266% (inactive); under `CCOC(=O)c1ccc(NC(=O)C2(N3C(=O)c4ccccc4C3=O)CCCC2)cc1`, 0.495% (inactive). On the same count and under the same terms, under `NNC(=O)c1sc(-c2ccc(Cl)cc2)cc1N` stands 0.125% (inactive); under `CC(=O)c1ccc2c(c1)OCCOCCOCCOCCOCCO2`, 0.551% (inactive); under `CCOC(=O)Cn1c(=NC(=O)c2ccc([N+](=O)[O-])s2)sc2ccccc21`, 12% (inactive). Same read-out and setting: with `COc1cccc(CNC(=O)c2ccc(NC(=O)CC3SC(N4CCCC4)=NC3=O)cc2)c1` (stereo not drawn) the figure was 0% (inactive); with `CC(=O)Nc1ccc(NS(=O)(=O)c2ccc3c(c2)oc(=O)n3C)cc1`, 0.01% (inactive); with `CC(=O)Nc1ccc(N2Cc3ccccc3C2)cc1`, 0.093% (inactive).

As to `CC(=O)OCCNc1cc(Sc2nc3ccccc3[nH]2)c2nonc2c1[N+](=O)[O-]`, the % fluorescent cells increase was 9.92% (inactive). The same measure, in the same setting: under `O=C(COC(=O)c1cc(=O)[nH]c(=O)[nH]1)Nc1cccc(S(=O)(=O)N2CCCCC2)c1` stands 0% (inactive).

Regarding `Cc1cccc(NCc2ccc(O)c3ncccc23)c1C`, the % fluorescent cells increase was 0.074% (inactive).

As to `NNc1nc2c(-c3ccc(F)cc3)nnn2c2ccccc12`, the % fluorescent cells increase was 0.008% (inactive). With `O=c1[nH]nc(SCCS(=O)(=O)c2ccc(F)cc2)n1-c1ccccc1C(F)(F)F`, the % fluorescent cells increase is -0.004% (inactive). Still for that read-out and setting: under `C=CCn1c(SCC(=O)N(CC)C2CCS(=O)(=O)C2)nc2sc3c(c2c1=O)CCC3` (stereo not drawn) stands 0.034% (inactive); under `O=C(c1nc(SCc2ccc([N+](=O)[O-])cc2)n2ccccc12)C(F)(F)F`, 0.04% (inactive); under `C[C@@H]1CCCCO[C@@H](CN(C)C(=O)Nc2ccc(C(F)(F)F)cc2)[C@@H](C)CN([C@H](C)CO)C(=O)c2cc(NS(=O)(=O)c3ccc(F)cc3)ccc2O1`, -0.166% (inactive). The same measure, in the same setting: with `Cc1[nH]c2ccccc2c1/C=N/Nc1nc2ccccc2[nH]1` the figure was 0% (inactive); with `Cc1c(/C=N\NC(=O)c2cc3ccccc3o2)c2ccccc2n1C`, 0% (inactive); with `Oc1cc2c(c(Cl)c1O)CCNCC2c1ccccc1` (stereo not drawn), -0.007% (inactive). Same read-out and setting: under `CCC(=O)OCCNc1cc(Sc2nc3ccccc3[nH]2)c2nonc2c1[N+](=O)[O-]` stands -0.003% (inactive).

On to `O=C(C[C@H]1CC[C@H]2[C@@H](COC[C@@H](O)CN2C(=O)Nc2ccccc2)O1)NCCc1ccncc1`, for which the % fluorescent cells increase was 0.044% (inactive).

Consider `C[C@@H]1CN([C@@H](C)CO)C(=O)c2ccccc2-c2ccccc2CO[C@@H]1CN(C)C(=O)Nc1ccc2c(c1)OCO2`, for which the % fluorescent cells increase was -0.044% (inactive).
